Legend:
[1] = tested on: Staphylococcus haemolyticus L 602; test: In vitro MIC, standard agar-dilution test in microtiter; type: cell-based; conditions: ISOSENSITEST broth, inoculum about 10^4 CFU/ml, 18-24 h at 37° C.
Description: (§1) The antibacterial activity, of the compounds of the invention is determined in vitro by means of standard agar-dilution tests in microtiter. ISOSENSITEST broth (Oxoid) and TODD-[…] broth (Difco) are used for growing Staphylococci and Streptococci. respectively. Broth cultures are diluted so that the final inoculum is about 10^4 forming units/ml (CFU/ml).

[2] = tested on: Streptococcus pneumoniae UC 41; test: as above; type: cell-based; conditions: TODD-HEWITT broth, inoculum about 10^4 CFU/ml, 18-24 h at 37° C.
Description: as §1

[3] = tested on: Streptococcus faecalis ATCC 7080; test: as above; type: cell-based; conditions: TODD-HEWITT broth, inoculum about 10^4 CFU/ml, 18-24 h at 37° C.
Description: (§2) The antibacterial activity, of the compounds of the invention is determined in vitro by means of standard agar-dilution tests in microtiter. ISOSENSITEST broth (Oxoid) and TODD-HEWITT broth (Difco) are used for growing Staphylococci and Streptococci. respectively. Broth cultures are diluted so that the final inoculum is about 10^4 forming units/ml (CFU/ml).

[4] = tested on: Staphylococcus aureus TOUR; test: as above; type: cell-based; conditions: ISOSENSITEST broth, inoculum about 10^4 CFU/ml, 18-24 h at 37° C.
Description: as §2

[5] = tested on: Streptococcus pyogenes C 203; test: as above; type: cell-based; conditions: TODD-HEWITT broth, inoculum about 10^4 CFU/ml, 18-24 h at 37° C.
Description: as §2

[6] = tested on: Staphylococcus epidermidis ATCC 12228; test: as above; type: cell-based; conditions: ISOSENSITEST broth, inoculum about 10^4 CFU/ml, 18-24 h at 37° C.
Description: as §2

[7] = tested on: clinical isolates of Streptococcus pyogenes; test: MIC against clinical isolates of Streptococcus pyogenes; type: cell-based
Description: as §2

[8] = tested on: glycopeptide-resistant E. faecium; test: In vitro MIC against glycopeptide-resistant Enterococci; type: cell-based
Description: (§3) In particular, the activity of the compounds of the invention was confirmed through in vitro experiments carried out with clinical isolates resistant to glycopeptide antibiotics such as with Enterococci faecalis, Enterococci faecium, as shown in Table IIa.
(§4) The antibacterial activity is determined in vitro by means of standard
(§5) agardilution tests in microtiter. ISOSENSITEST broth (Oxoid) is used for
(§6) growing Enterococci. Broth cultures are diluted so that the final inoculu
(§7) is about 5 × 10^5 forming units/ml (CFU/ml).

[9] = tested on: glycopeptide-resistant E. faecalis; test: as above; type: cell-based
Description: as §3, §4, §5, §6, §7

[10] = tested on: Streptococcus pyogenes C 203; conditions: comparison statement for teicoplanin and prior-art compounds; never lower than; cited from earlier work
[11] = E. faecium L 1666, ISOSENSITEST broth, inoculum about 5 × 10^5 CFU/ml

For `CC(C)CCCCCCC(=O)N[C@H]1[C@H](Oc2c3cc4cc2Oc2ccc(cc2Cl)CC2NC(=O)C(NC(=O)C4NC(=O)C4NC(=O)C(Cc5ccc(c(Cl)c5)O3)NC(=O)C(N)c3ccc(O)c(c3)Oc3cc(O)cc4c3)c3ccc(O)c(c3)-c3c(O[C@H]4O[C@H](CO)[C@@H](O)[C@H](O)[C@@H]4O)cc(O)cc3C(C(=O)NCCCN(C)C)NC2=O)O[C@H](CO)[C@@H](O)[C@@H]1O` (stereo partly shown) [Compound 6], the MIC [1] was 1 microgram/ml, the MIC [2] was 0.25 microgram/ml and the MIC [3] was 2 microgram/ml. For the same compound, the MIC [4] was 2 microgram/ml, the MIC [5] was 0.06 microgram/ml and the MIC [6] was 0.12 microgram/ml.

For teicoplanin, the MIC ([7]; S. pyogenes strain L-33) was 0.063 microgram/ml, the MIC ([7]; S. pyogenes strain L-317) was 0.063 microgram/ml and the MIC ([7]; S. pyogenes strain L-800) was 0.063 microgram/ml. For the same compound, the MIC ([7]; S. pyogenes strain L-801) was 0.063 microgram/ml, the MIC ([7]; S. pyogenes strain L-802) was 0.063 microgram/ml and the MIC ([7]; S. pyogenes strain L-803) was 0.063 microgram/ml. For the same compound, the MIC ([7]; S. pyogenes strain L-804) was 0.063 microgram/ml, the MIC ([7]; S. pyogenes strain L-805) was 0.063 microgram/ml and the MIC ([7]; S. pyogenes strain L-1303) was 0.063 microgram/ml. It also gave an MIC ([7]; S. pyogenes strain L-1304) of 0.125 microgram/ml, an MIC ([7]; S. pyogenes strain L-1306) of 0.125 microgram/ml and an MIC ([7]; S. pyogenes strain L-1315) of 0.063 microgram/ml. For the same compound, the MIC ([7]; S. pyogenes strain L-1316) was 0.063 microgram/ml, the MIC ([7]; S. pyogenes strain L-1318) was 0.063 microgram/ml and the MIC ([7]; S. pyogenes strain L-1319) was 0.063 microgram/ml. The MIC [8, 11] was greater than 128 µg/mL, the MIC ([8]; E. faecium NCTC 12203, ISOSENSITEST broth, inoculum about 5 × 10^5 CFU/ml) was 64 µg/mL and the MIC ([8]; E. faecium NTCT 12204, ISOSENSITEST broth, inoculum about 5 × 10^5 CFU/ml) was 64 µg/mL. It also gave an MIC ([9]; E. faecalis L 560, ISOSENSITEST broth, inoculum about 5 × 10^5 CFU/ml) greater than 128 µg/mL, an MIC ([9]; E. faecalis NCTC 12201, ISOSENSITEST broth, inoculum about 5 × 10^5 CFU/ml) of 128 µg/mL and an MIC ([9]; E. faecalis NCTC 12202, ISOSENSITEST broth, inoculum about 5 × 10^5 CFU/ml) of 128 µg/mL. For the same compound, the “MIC against Streptococcus pyogenes” value [10] was no less than 0.06 microgram/ml.

Compound `CC(C)CCCCCCC(=O)N[C@H]1[C@H](Oc2c3cc4cc2Oc2ccc(cc2Cl)CC2NC(=O)C(NC(=O)C4NC(=O)C4NC(=O)C(Cc5ccc(c(Cl)c5)O3)NC(=O)C(N)c3ccc(O)c(c3)Oc3cc(O)cc4c3)c3ccc(O)c(c3)-c3c(O[C@H]4O[C@H](CO)[C@@H](O)[C@H](O)[C@@H]4O)cc(O)cc3C(C(=O)NCCCN(CCCN)CCCN)NC2=O)O[C@H](CO)[C@@H](O)[C@@H]1O` (stereo partly shown) [Compound 33] has an MIC [1] of 0.032 microgram/ml, an MIC [2] of 0.12 microgram/ml and an MIC [3] of 0.12 microgram/ml. The MIC [4] was 0.12 microgram/ml, the MIC [5] was 0.004 microgram/ml and the MIC [6] was 0.004 microgram/ml.

In the case of `CC(C)CCCCCCC(=O)N[C@H]1[C@H](Oc2c3cc4cc2Oc2ccc(cc2Cl)CC2NC(=O)C(NC(=O)C4NC(=O)C4NC(=O)C(Cc5ccc(c(Cl)c5)O3)NC(=O)C(N)c3ccc(O)c(c3)Oc3cc(O)cc4c3)c3ccc(O)c(c3)-c3c(O[C@H]4O[C@H](CO)[C@@H](O)[C@H](O)[C@@H]4O)cc(O)cc3C(C(=O)NCCCNCCO)NC2=O)O[C@H](CO)[C@@H](O)[C@@H]1O` (stereo partly shown) [Compound 7], the MIC [1] is reported as 1 microgram/ml, the MIC [2] is reported as 0.25 microgram/ml and the MIC [3] is reported as 2 microgram/ml. For the same compound, the MIC [4] was 1 microgram/ml, the MIC [5] was 0.032 microgram/ml and the MIC [6] was 0.06 microgram/ml.

`CN[C@H](CC(C)C)C(=O)N[C@H]1C(=O)N[C@@H](CC(N)=O)C(=O)N[C@H]2C(=O)N[C@H]3C(=O)N[C@H](C(=O)N[C@H](C(=O)O)c4cc(O)cc(O)c4-c4cc3ccc4O)[C@H](O)c3ccc(c(Cl)c3)Oc3cc2cc(c3O[C@@H]2O[C@H](CO)[C@@H](O)[C@H](O)[C@H]2O[C@H]2C[C@](C)(N)[C@H](O)[C@H](C)O2)Oc2ccc(cc2Cl)[C@H]1O` [VANCO, vancomycin] showed an MIC [8, 11] greater than 128 µg/mL, an MIC ([8]; Enterococcus faecium) greater than 128 µg/mL and an MIC ([8]; Enterococcus faecium, NCTC12203) greater than 128 µg/mL. The MIC ([9]; Enterococcus faecalis) was greater than 128 µg/mL, the MIC ([9]; Enterococcus faecalis, NCTC12201) was greater than 128 µg/mL and the MIC ([9]; Enterococcus faecalis, NCTC12202) was greater than 128 µg/mL.

— US5194424A, “C^63 -amide derivatives of 34-de(acetylglucosaminyl)-34-deoxy-teicoplanin and their use as medicaments against bacteria resistant to glycopeptide antibiotics” (Gruppo Lepetit SpA, priority 1988, dated 1993)
